Target: T1, human TAAR1 receptor (Homo sapiens, UniProt Q96RJ0)
T1 sequence (Q96RJ0 1-339): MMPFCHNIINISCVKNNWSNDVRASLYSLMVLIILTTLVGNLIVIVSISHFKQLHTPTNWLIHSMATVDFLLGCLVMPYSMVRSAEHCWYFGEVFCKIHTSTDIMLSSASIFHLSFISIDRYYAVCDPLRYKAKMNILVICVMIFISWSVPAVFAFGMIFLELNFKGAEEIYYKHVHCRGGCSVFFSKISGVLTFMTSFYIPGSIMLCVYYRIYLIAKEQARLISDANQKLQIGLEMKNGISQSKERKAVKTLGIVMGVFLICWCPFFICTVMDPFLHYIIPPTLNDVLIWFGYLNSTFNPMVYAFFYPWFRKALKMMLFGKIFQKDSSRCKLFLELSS
Test: Human TAAR1 agonist assay
Details: for fold less active for TAAR1 than β-PEA (2): EC50 ratio versus β-PEA (2); for fold less potent for TAAR1 than racemic ulotaront 20: EC50 ratio versus racemic ulotaront 20

Q: `NC[C@H](O)c1ccc(O)cc1` [6a, (−)-octopamine, reference compound] was tested. Which “fold less active for TAAR1 than p-tyramine (4)” value did it give?
A: The value was 21 fold.

Q: `NC[C@@H](O)c1ccc(O)cc1` [6b, (+)-octopamine, reference compound] was tested. Which “fold less active for TAAR1 than p-tyramine (4)” value did it give?
A: Its value is 54 fold.

Q: For `CNC[C@H](O)c1ccc(O)cc1` [7a, (−)-synephrine, reference compound], which “fold reduced TAAR1 activity compared to 6a” value (EC50 ratio versus (−)-octopamine 6a) is on record?
A: Its value is “approximately 3 fold”.

Q: `CNCCc1ccccc1` [compound 3, N-methylphenethylamine, reference compound] was tested. Which “fold less active for TAAR1 than β-PEA (2)” value (from here on “fold less active … (2)”) did it give?
A: Its value is “approximately 10 fold”.

Q: `NCCc1ccc(O)cc1` [compound 4, p-tyramine, reference compound] was tested. Which “fold less active … (2)” value did it give?
A: The value was “about 5 fold”.

Q: `NCCc1cccc(O)c1` [compound 5, m-tyramine, reference compound] was tested. Which “fold less active … (2)” value did it give?
A: Its value is roughly 23 fold.

Q: How did the “fold less active … (2)” value turn out when `NCCc1c[nH]c2ccccc12` [compound 10, tryptamine, reference compound] was run?
A: Its value is “about 150 fold”.

Q: For `CNC[C@]1(C)OCCc2ccsc21` [compound 21], which “fold less potent for TAAR1 than ulotaront” value is on record?
A: The value was greater than 1000 fold.

Q: With `NC[C@@H]1OCCc2ccsc21` [compound 22] as the molecule, how does the “fold more potent for TAAR1 than ulotaront” value read?
A: Its value is “about 11 fold”.

Q: For `c1cc2c(s1)[C@H](CN1CCCC1)OCC2` [compound 24], which “fold less potent for TAAR1 than ulotaront” value is on record?
A: Its value is 189 fold.

Q: `NCC[C@@H]1OCCc2ccsc21` [compound 25] was tested. Which “fold reduced TAAR1 activity compared to N-demethylated analogue 22” value (EC50 ratio versus 22) did it give?
A: The value was 67 fold.

Q: Which “fold less potent for TAAR1 than racemic ulotaront 20” value does the source give for `CNCC1OCCCc2ccsc21` (stereo not shown) [compound 26] here?
A: Its value is “approximately 6 fold”.

Q: Which “fold more potent for TAAR1 compared to 26” value (EC50 ratio versus 26) does the source give for `NCC1OCCCc2ccsc21` (stereo not shown) [compound 27] here?
A: Its value is “about 5 fold”.

Q: How did the “fold less potent for TAAR1 than racemic ulotaront 20” value turn out when `CNCC1OCCc2cscc21` (stereo not shown) [compound 28] was run?
A: The value was roughly 6 fold.

Q: For `CNC[C@@H]1OCCc2sccc21` [compound 29], which “fold less potent for TAAR1 than ulotaront” value is on record?
A: Its value is 3 fold.

Q: How did the “fold more potent for TAAR1 than the other ring opened thiophene (31)” value (EC50 ratio versus 31) turn out when `NCCc1cccs1` [compound 30, thiophen-2-ylethanamine] was run?
A: The value was “approximately 3 fold”.
